Results from patent US4126616A, “N-propylnorapomorphine diesters” (Hinshaw; William B., priority 1976, dated 1978).
Where two headings read alike, the source gives them in different places.

Tested on: caudate lesioned mouse
Assay: caudate lesioned mouse test (anti-parkinson activity)
Format: in vivo
Conditions: for ED50: caudate lesioned mouse; for Molar Potency Ratio Claimed/Ref. Ester: claimed N-propyl ester vs corresponding N-methyl reference ester; for responders at 52 µmol/kg: dose 0.052 m. mole/kg; for responders at 132 µmol/kg: dose 0.132 m. mole/kg; for responders at 6.5 µmol/kg: dose 0.0065 m. mole/kg
Protocol: An index of anti-parkinson activity was determined using the caudate lesioned mouse test described by Lotti, Life Sci., 10, 781-789 (1971). The mice having unilateral lesions of the caudate nucleus prepared according to the method of Lotti supra were observed immediately after the surgical procedure for strong postural asymmetries directed to the same side as the lesion. When this asymmetry was not observed, the mice were discarded. Operated mice were allowed at least 14 days to recover prior to drug testing. The lesioned mice were tested with apomorphine using 1.7 mg./kg. of base administered intraperitoneally in a 1% suspension in gum tragacanth. […] Only those mice which twisted or circled toward the lesioned side in all three test periods after the apomorphine injection were retained for further drug testing. The test drugs were all administered in 1% gum tragacanth suspension in a volume of 0.1 ml./10 g. of body weight. Doses were expressed in mg./kg. of free base.
Results of tests in the caudate lesioned mouse test described above which were obtained on the compounds of the invention are given in the table below identified, in each case, by the example numbers above where their preparations are described. Corresponding data for reference apomorphine diesters described in German patent application No. 2,154,162 are given in a side-by-side relationship for a number of the species. The reference compounds, designated Ref. 1, Ref. 1B, Ref. 1C, Ref. 1D, Ref. 1E, Ref. 1F, Ref. 2 and Ref. 2A correspond, respectively, to the compounds of the invention identified by Examples 1, 1B, 1C, 1D, 1E, 1F, 2 and 2A and differ from the latter only in having a methyl group on the apomorphine nitrogen from instead of an n-propyl group as present in the instant compounds.

[1] = Mus musculus, 0.5 h, read-out: No. Mice Affected/No. Mice Tested, 1/2 h
[2] = Mus musculus, 1 h, read-out: No. Mice Affected/No. Mice Tested, 1 h
[3] = Mus musculus, 2 h, read-out: No. Mice Affected/No. Mice Tested, 2 h
[4] = Mus musculus, 4 h, read-out: No. Mice Affected/No. Mice Tested, 4 h
[5] = Mus musculus, 6 h, read-out: No. Mice Affected/No. Mice Tested, 6 h
[6] = Mus musculus, 24 h, read-out: No. Mice Affected/No. Mice Tested, 24 h
[7] = Mus musculus, read-out: No. Mice Affected/No. Mice Tested, Total
[8] = Mus musculus, 0.5 h, 1/2 h post-drug, read-out: No. Mice Affected/No. Mice Tested, 1/2 h (converted)
[9] = Mus musculus, 1 h post-drug, read-out: No. Mice Affected/No. Mice Tested, 1 h (converted)
[10] = Mus musculus, 4 h post-drug, read-out: No. Mice Affected/No. Mice Tested, 4 h (converted)
[11] = Mus musculus, 6 h post-drug, read-out: No. Mice Affected/No. Mice Tested, 6 h (converted)
[12] = Mus musculus, 24 h post-drug, read-out: No. Mice Affected/No. Mice Tested, 24 h
[13] = Mus musculus, total, read-out: No. Mice Affected/No. Mice Tested, Total (converted)
[14] = Mus musculus, 0.5 h, dose 0.416 m. mole/kg, 1/2 h post-drug, read-out: No. Mice Affected/No. Mice Tested, 1/2 h (converted)
[15] = Mus musculus, dose 0.416 m. mole/kg, 1 h post-drug, read-out: No. Mice Affected/No. Mice Tested, 1 h (converted)
[16] = Mus musculus, dose 0.416 m. mole/kg, 4 h post-drug, read-out: No. Mice Affected/No. Mice Tested, 4 h (converted)
[17] = Mus musculus, dose 0.416 m. mole/kg, 6 h post-drug, read-out: No. Mice Affected/No. Mice Tested, 6 h (converted)
[18] = Mus musculus, dose 0.416 m. mole/kg, 24 h post-drug, read-out: No. Mice Affected/No. Mice Tested, 24 h
[19] = Mus musculus, dose 0.416 m. mole/kg, total, read-out: No. Mice Affected/No. Mice Tested, Total (converted)
[20] = Mus musculus, 0.5 h, dose 0.026 m. mole/kg, 1/2 h post-drug, read-out: No. Mice Affected/No. Mice Tested, 1/2 h (converted)
[21] = Mus musculus, dose 0.026 m. mole/kg, 1 h post-drug, read-out: No. Mice Affected/No. Mice Tested, 1 h (converted)
[22] = Mus musculus, dose 0.026 m. mole/kg, 2 h post-drug, read-out: No. Mice Affected/No. Mice Tested, 2 h (converted)
[23] = Mus musculus, dose 0.026 m. mole/kg, 4 h post-drug, read-out: No. Mice Affected/No. Mice Tested, 4 h (converted)
[24] = Mus musculus, dose 0.026 m. mole/kg, 6 h post-drug, read-out: No. Mice Affected/No. Mice Tested, 6 h (converted)
[25] = Mus musculus, dose 0.026 m. mole/kg, 24 h post-drug, read-out: No. Mice Affected/No. Mice Tested, 24 h
[26] = Mus musculus, dose 0.026 m. mole/kg, total, read-out: No. Mice Affected/No. Mice Tested, Total (converted)

## CCCN1CCc2cccc3c2C1Cc1ccc(OC(=O)CC)c(OC(=O)CC)c1-3 (centres unmarked) [Ex. 1 (Base), N-propylnorapomorphine dipropionate]
[1]
  responders at 5.2 µmol/kg: 0%
  responders at 13 µmol/kg: 75%
  responders at 26 µmol/kg: 100%
[2]
  responders at 5.2 µmol/kg: 0%
  responders at 13 µmol/kg: 75%
  responders at 26 µmol/kg: 100%
[3]
  responders at 5.2 µmol/kg: 0%
  responders at 13 µmol/kg: 75%
  responders at 26 µmol/kg: 75%
[4]
  responders at 5.2 µmol/kg: 0%
  responders at 13 µmol/kg: 75%
  responders at 26 µmol/kg: 75%
[5]
  responders at 5.2 µmol/kg: 0%
  responders at 13 µmol/kg: 50%
  responders at 26 µmol/kg: 25%
[6]
  responders at 5.2 µmol/kg: 0%
  responders at 13 µmol/kg: 0%
  responders at 26 µmol/kg: 0%
Mus musculus
  ED50: 10 µmol/kg
[7]
  responders at 5.2 µmol/kg: 0%
  responders at 13 µmol/kg: 75%
  responders at 26 µmol/kg: 100%
  Molar Potency Ratio Claimed/Ref. Ester: 10

## CC(C)C(=O)Oc1ccc2c(c1OC(=O)C(C)C)-c1cccc3c1C(C2)N(C)CC3 (centres unmarked) [Ref. 1B, reference compound]
[1]
  responders at 208 µmol/kg: 0%
[2]
  responders at 208 µmol/kg: 0%
[4]
  responders at 208 µmol/kg: 25%
[5]
  responders at 208 µmol/kg: 0%
[6]
  responders at 208 µmol/kg: 0%
[7]
  responders at 208 µmol/kg: 25%

## CC(=O)Oc1ccc2c(c1OC(C)=O)-c1cccc3c1C(C2)N(C)CC3 (centres unmarked) [Ref. 2, reference compound]
[1]
  responders at 208 µmol/kg: 0%
  responders at 416 µmol/kg: 25%
[2]
  responders at 208 µmol/kg: 0%
  responders at 416 µmol/kg: 50%
[4]
  responders at 208 µmol/kg: 0%
  responders at 416 µmol/kg: 75%
[5]
  responders at 208 µmol/kg: 0%
  responders at 416 µmol/kg: 75%
[6]
  responders at 208 µmol/kg: 25%
  responders at 416 µmol/kg: 25%
[7]
  responders at 208 µmol/kg: 25%
  responders at 416 µmol/kg: 75%

## CCCCCCCCCCCCCCCC(=O)Oc1ccc2c(c1OC(=O)CCCCCCCCCCCCCCC)-c1cccc3c1C(C2)N(CCC)CC3 (centres unmarked) [Ex. ID, N-Propylnorapomorphine dihexadecanoate]
[8]
  responders at 52 µmol/kg: 0%
  responders at 132 µmol/kg: 0%
[9]
  responders at 52 µmol/kg: 0%
  responders at 132 µmol/kg: 0%
[10]
  responders at 52 µmol/kg: 25%
  responders at 132 µmol/kg: 100%
[11]
  responders at 52 µmol/kg: 25%
  responders at 132 µmol/kg: 0%
[12]
  responders at 52 µmol/kg: 0%
[13]
  responders at 52 µmol/kg: 25%
  responders at 132 µmol/kg: 100%
Mus musculus, 24 h post-drug, read-out: No. Mice Affected/No. Mice Tested, 24 h (converted)
  responders at 132 µmol/kg: 33.3%
  Molar Potency Ratio Claimed/Ref. Ester: ≥ 8

## CCCCCCCCCCCCCCCC(=O)Oc1ccc2c(c1OC(=O)CCCCCCCCCCCCCCC)-c1cccc3c1C(C2)N(C)CC3 (centres unmarked) [Ref. 1D, reference compound]
Mus musculus, 0.5 h, dose 0.208 m. mole/kg, 1/2 h post-drug, read-out: No. Mice Affected/No. Mice Tested, 1/2 h (converted)
  responders at 208 µmol/kg: 0%
[14]
  responders at 416 µmol/kg: 0%
Mus musculus, dose 0.208 m. mole/kg, 1 h post-drug, read-out: No. Mice Affected/No. Mice Tested, 1 h
  responders at 208 µmol/kg: 0%
Mus musculus, dose 0.208 m. mole/kg, 4 h post-drug, read-out: No. Mice Affected/No. Mice Tested, 4 h (converted)
  responders at 208 µmol/kg: 0%
Mus musculus, dose 0.208 m. mole/kg, 6 h post-drug, read-out: No. Mice Affected/No. Mice Tested, 6 h (converted)
  responders at 208 µmol/kg: 0%
Mus musculus, dose 0.208 m. mole/kg, 24 h post-drug, read-out: No. Mice Affected/No. Mice Tested, 24 h (converted)
  responders at 208 µmol/kg: 0%
Mus musculus, dose 0.208 m. mole/kg, total, read-out: No. Mice Affected/No. Mice Tested, Total (converted)
  responders at 208 µmol/kg: 0%
[15]
  responders at 416 µmol/kg: 0%
[16]
  responders at 416 µmol/kg: 0%
[17]
  responders at 416 µmol/kg: 0%
[18]
  responders at 416 µmol/kg: 0%
[19]
  responders at 416 µmol/kg: 0%

## CCCN1CCc2cccc3c2C1Cc1ccc(OC(=O)c2ccc(OC)cc2)c(OC(=O)c2ccc(OC)cc2)c1-3 (centres unmarked) [Ex. 1J, N-Propylnorapomorphine bis-4-methoxybenzoate]
read-out: ED50
  ED50: 13 µmol/kg
Mus musculus, 0.5 h, 1/2 h post-drug, read-out: No. Mice Affected/No. Mice Tested, 1/2 h
  responders at 6.5 µmol/kg: 0%
[20]
  responders at 26 µmol/kg: 50%
Mus musculus, 1 h post-drug, read-out: No. Mice Affected/No. Mice Tested, 1 h
  responders at 6.5 µmol/kg: 0%
Mus musculus, 2 h post-drug, read-out: No. Mice Affected/No. Mice Tested, 2 h
  responders at 6.5 µmol/kg: 0%
Mus musculus, 4 h post-drug, read-out: No. Mice Affected/No. Mice Tested, 4 h
  responders at 6.5 µmol/kg: 0%
Mus musculus, 6 h post-drug, read-out: No. Mice Affected/No. Mice Tested, 6 h
  responders at 6.5 µmol/kg: 0%
[12]
  responders at 6.5 µmol/kg: 0%
Mus musculus, total, read-out: No. Mice Affected/No. Mice Tested, Total
  responders at 6.5 µmol/kg: 0%
[21]
  responders at 26 µmol/kg: 100%
[22]
  responders at 26 µmol/kg: 75%
[23]
  responders at 26 µmol/kg: 50%
[24]
  responders at 26 µmol/kg: 50%
[25]
  responders at 26 µmol/kg: 0%
[26]
  responders at 26 µmol/kg: 100%

## CCCN1CCc2cccc3c2C1Cc1ccc(OC(=O)c2ccccc2C)c(OC(=O)c2ccccc2C)c1-3 (centres unmarked) [Ex. 1G, N-Propylnorapomorphine bis-2-methylbenzoate]
read-out: ED50
  ED50: 26 µmol/kg
[20]
  responders at 26 µmol/kg: 25%
[21]
  responders at 26 µmol/kg: 50%
[22]
  responders at 26 µmol/kg: 50%
[23]
  responders at 26 µmol/kg: 50%
[24]
  responders at 26 µmol/kg: 50%
[25]
  responders at 26 µmol/kg: 0%
[26]
  responders at 26 µmol/kg: 50%

## CN1CCc2cccc3c2C1Cc1ccc(OC(=O)c2ccccc2)c(OC(=O)c2ccccc2)c1-3 (centres unmarked) [Ref. 1E, reference compound]
[14]
  responders at 416 µmol/kg: 0%
[15]
  responders at 416 µmol/kg: 0%
[16]
  responders at 416 µmol/kg: 0%
[17]
  responders at 416 µmol/kg: 0%
[18]
  responders at 416 µmol/kg: 0%
[19]
  responders at 416 µmol/kg: 0%
